Read-outs that look alike come from different tables or passages of the source.
What was measured:
VIM-1 = VIM-1 (Pseudomonas aeruginosa (strain ATCC 15692 / DSM 22644 / CIP 104116 / JCM 14847 / LMG 12228 / 1C / PRS 101 / PAO1), UniProt A0A0F7KYQ8); test: biochemical; settings: CCF2-FA substrate, 30 pM enzyme, 2 hours at 25° C.
In short: (§1)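 Test compound, enzyme and the FRET cephalosporin substrate CCF2-FA are incubated together for 2 hours at 25° C. Cleavage is followed by fluorescence, and IC50 values are derived from semi-logarithmic inhibition curves fitted with a 4-parameter model.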

[1] = tested on: Pseudomonas aeruginosa MB9798 vs MB9799; settings: ratio MITC95 PA_9798/MITC95 PA_9799
In short: (§2)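 P. aeruginosa PAO1-derived IMP-1 strains, efflux+ MB9798 and efflux− MB9799, tested by standard microbroth MIC with imipenem and/or ceftazidime fixed, usually at CLSI breakpoint, plus fixed class A/C β-lactamase inhibitor against AmpC. Inhibitor titrated; concentration restoring susceptibility recorded; MB9798/MB9799 fold difference indicates efflux.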

[2] = tested on: Serratia marcescens expressing IMP-1 (CL5741); format: cell-based; settings: with imipenem 1 μg/ml; 95% inhibition of bacterial growth
In short: (§3)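 Clinical strains grown overnight on blood agar at 35°C, colonies suspended in saline, diluted 1:100 into 1.1×CAMHB. Test compound titrated with imipenem at 1 μg/ml; incubated 22–24 h at 35°C, growth read by absorbance.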

[3] = tested on: Escherichia coli expressing NDM-1 (CLB30005, CLB30016); format: cell-based; settings: with imipenem 1 μg/ml; 95% inhibition of bacterial growth
In short: as §3

[4] = tested on: Klebsiella pneumoniae expressing VIM-1 (IHMA599644); format: cell-based; settings: with imipenem 1 μg/ml; 95% inhibition of bacterial growth
In short: as §3

[5] = tested on: Pseudomonas aeruginosa efflux− (MB9799), IMP-1; format: cell-based; settings: concentration restoring susceptibility to imipenem at 2 μg/mL in the presence of a class A, C, D serine β-lactamase inhibitor closely related to relebactam
In short: as §2

NDM-1 = NDM-1 (Klebsiella pneumoniae, UniProt C7C422); test: biochemical; format: biochemical; settings: fluorescence assay, CCF2-FA substrate, 1 pM enzyme, 2 hours at 25° C.; read-out: NDM-1 IC50
In short: as §1

IMP-1 = IMP-1 (Serratia marcescens, UniProt P52699); test: biochemical; format: biochemical; settings: fluorescence assay, CCF2-FA substrate, 2 pM enzyme, 2 hours at 25° C.; read-out: IMP-1 IC50
In short: as §1

[6] = tested on: Pseudomonas aeruginosa efflux+ (MB9798), IMP-1; format: cell-based; settings: concentration restoring susceptibility to imipenem at 2 μg/mL in the presence of a class A, C, D serine β-lactamase inhibitor closely related to relebactam
In short: as §2

[7] = fluorescence assay, read-out: VIM-1 IC50

Chain of NDM-1 (C7C422 whole entry, looked up, species assumed): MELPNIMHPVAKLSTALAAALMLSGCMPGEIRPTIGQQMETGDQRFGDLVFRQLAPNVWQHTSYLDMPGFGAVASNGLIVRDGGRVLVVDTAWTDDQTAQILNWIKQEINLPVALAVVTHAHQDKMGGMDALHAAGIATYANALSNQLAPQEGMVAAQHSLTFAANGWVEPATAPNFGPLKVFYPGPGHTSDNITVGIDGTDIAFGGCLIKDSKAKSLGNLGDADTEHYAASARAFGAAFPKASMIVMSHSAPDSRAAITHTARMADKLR
Chain of IMP-1 (P52699 whole entry, looked up, species assumed): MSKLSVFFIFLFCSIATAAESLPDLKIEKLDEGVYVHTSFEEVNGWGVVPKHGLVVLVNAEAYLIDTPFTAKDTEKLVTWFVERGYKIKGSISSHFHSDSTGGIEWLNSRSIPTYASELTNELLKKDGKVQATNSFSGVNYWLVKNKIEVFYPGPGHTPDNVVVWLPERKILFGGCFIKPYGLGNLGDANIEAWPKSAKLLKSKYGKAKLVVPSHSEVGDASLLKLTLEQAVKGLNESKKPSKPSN

Compound | IC50 (VIM-1; VIM-1 IC50, fluorescence assay) [nM] | Efflux ratio [1] | Serratia marcescens expressing IMP-1 (CL5741) MITC95 [2] [µM] | Escherichia coli expressing NDM-1 (CLB30016) MITC95 [3] [µM] | Klebsiella pneumoniae expressing VIM-1 (IHMA599644) MITC95 [4] [µM] | P. aeruginosa expressing IMP-1, efflux − (MB9799) MITC95 [5] [µM] | IC50 (NDM-1) [nM] | IC50 (IMP-1) [nM] | P. aeruginosa expressing IMP-1, efflux + (MB9798) MITC95 [6] [µM] | IC50 (VIM-1; [7]) [nM]
Nc1nc2c(-c3ccc(S(=O)(=O)NC4CN5CCC4CC5)c(S(N)(=O)=O)c3-c3nnn[nH]3)cccc2s1.O=C(O)C(F)(F)F (stereo not drawn) [Example 97, 3-(4-(2-aminobenzo[d]thiazol-4-yl)-2-sulfamoyl-3-(1H-tetrazol-5-yl)phenylsulfonamido)quinuclidin-1-ium 2,2,2-trifluoroacetate] | 0.222 | 1.00 | 3.125 | 3.125 | 3.125 | 1.563 | 0.0214 | 0.383 | 1.563 | –
CN(CCc1ccncc1)S(=O)(=O)c1ccc(-c2cccc3sc(N)nc23)c(-c2nnn[nH]2)c1S(N)(=O)=O.O=C(O)C(F)(F)F [Example 100, 4-(2-(4-(2-aminobenzo[d]thiazol-4-yl)-N-methyl-2-sulfamoyl-3-(1H-tetrazol-5-yl)phenylsulfonamido)ethyl)pyridin-1-ium 2,2,2-trifluoroacetate] | 12.6 | 32.00 | 25 | 50 | 200 | 6.25 | 3.88 | 3.26 | 200 | –
CC1(CN)CN(S(=O)(=O)c2ccc(-c3cccc4sc(N)nc34)c(-c3nnn[nH]3)c2S(N)(=O)=O)C1.O=C(O)C(F)(F)F [Example 101, (1-((4-(2-aminobenzo[d]thiazol-4-yl)-2-sulfamoyl-3-(1H-tetrazol-5-yl)phenyl)sulfonyl)-3-methylazetidin-3-yl)methanaminium 2,2,2-trifluoroacetate] | 0.744 | 1.00 | 3.125 | 3.125 | 6.25 | 3.125 | 0.288 | 1.25 | 3.125 | –
CN1CCC(CNS(=O)(=O)c2ccc(-c3cccc4sc(N)nc34)c(-c3nnn[nH]3)c2S(N)(=O)=O)C1.O=C(O)C(F)(F)F (stereo not drawn) [Example 102, 3-((4-(2-aminobenzo[d]thiazol-4-yl)-2-sulfamoyl-3-(1H-tetrazol-5-yl)phenylsulfonamido)methyl)-1-methylpyrrolidin-1-ium 2,2,2-trifluoroacetate] | 0.194 | 0.50 | 1.563 | 3.125 | 3.125 | 1.563 | 0.0324 | 0.263 | 0.7813 | –
Nc1nc2c(-c3ccc(S(=O)(=O)N[C@H]4CO[C@H]5[C@@H]4OC[C@H]5N)c(S(N)(=O)=O)c3-c3nnn[nH]3)cccc2s1.O=C(O)C(F)(F)F [Example 103, (3R,3aR,6S,6aR)-6-(4-(2-aminobenzo[d]thiazol-4-yl)-2-sulfamoyl-3-(1H-tetrazol-5-yl)phenylsulfonamido)hexahydrofuro[3,2-b]furan-3-aminium 2,2,2-trifluoroacetate] | 0.196 | 2.00 | 3.125 | 3.125 | 3.125 | 1.563 | 0.0293 | 0.226 | 3.125 | –
NCC1CN(S(=O)(=O)c2ccc(-c3cccc4sc(N)nc34)c(-c3nnn[nH]3)c2S(N)(=O)=O)CCO1.O=C(O)C(F)(F)F (stereo not drawn) [Example 104, (4-((4-(2-aminobenzo[d]thiazol-4-yl)-2-sulfamoyl-3-(1H-tetrazol-5-yl)phenyl)sulfonyl)morpholin-2-yl)methanaminium 2,2,2-trifluoroacetate] | – | 2.00 | 3.125 | 1.563 | 6.25 | 1.563 | 0.229 | 1.24 | 3.125 | 1.59
CN(C1CNC1)S(=O)(=O)c1ccc(-c2cccc3sc(N)nc23)c(-c2nnn[nH]2)c1S(N)(=O)=O.O=C(O)C(F)(F)F [Example 105, 3-(4-(2-aminobenzo[d]thiazol-4-yl)-N-methyl-2-sulfamoyl-3-(1H-tetrazol-5-yl)phenylsulfonamido)azetidin-1-ium 2,2,2-trifluoroacetate] | 1.14 | 1.00 | 1.563 | 1.563 | 6.25 | 1.563 | 0.206 | 1.18 | 1.563 | –
Nc1nc2c(-c3ccc(S(=O)(=O)NCc4ccccn4)c(S(N)(=O)=O)c3-c3nnn[nH]3)cccc2s1.O=C(O)C(F)(F)F [Example 106, 2-((4-(2-aminobenzo[d]thiazol-4-yl)-2-sulfamoyl-3-(1H-tetrazol-5-yl)phenylsulfonamido)methyl)pyridin-1-ium 2,2,2-trifluoroacetate] | – | 4.00 | 3.125 | 6.25 | 12.5 | 3.125 | 0.0733 | 0.379 | 12.5 | 0.236
CN1CC(N(C)S(=O)(=O)c2ccc(-c3cccc4sc(N)nc34)c(-c3nnn[nH]3)c2S(N)(=O)=O)C1.O=C(O)C(F)(F)F [Example 107, 3-(4-(2-aminobenzo[d]thiazol-4-yl)-N-methyl-2-sulfamoyl-3-(1H-tetrazol-5-yl)phenylsulfonamido)-1-methylazetidin-1-ium 2,2,2-trifluoroacetate] | – | 4.00 | 3.125 | 3.125 | 6.25 | 1.563 | 0.184 | 1.4 | 6.25 | 1.69
CO[C@H]1CNC[C@@H]1NS(=O)(=O)c1ccc(-c2cccc3sc(N)nc23)c(-c2nnn[nH]2)c1S(N)(=O)=O.O=C(O)C(F)(F)F [Example 108, (3S,4S)-3-(4-(2-aminobenzo[d]thiazol-4-yl)-2-sulfamoyl-3-(1H-tetrazol-5-yl)phenylsulfonamido)-4-methoxypyrrolidin-1-ium 2,2,2-trifluoroacetate] | – | 1.00 | 3.125 | 1.563 | 3.125 | 1.563 | 0.0512 | 0.336 | 1.563 | 0.268
CC(N)CNS(=O)(=O)c1ccc(-c2cccc3sc(N)nc23)c(-c2nnn[nH]2)c1S(N)(=O)=O.O=C(O)C(F)(F)F (stereo not drawn) [Example 109, 1-(4-(2-aminobenzo[d]thiazol-4-yl)-2-sulfamoyl-3-(1H-tetrazol-5-yl)phenylsulfonamido)propan-2-aminium 2,2,2-trifluoroacetate] | 0.322 | 0.50 | 1.563 | 1.563 | 3.125 | 1.563 | 0.0821 | 0.44 | 0.7813 | –

From US10221163B2 (priority 2015, dated 2019)
